Assay results reported in US20200087314A1, “HISTONE DEACETYLASE INHIBITORS” (BIOMARIN PHARMACEUTICAL INC., priority 2016, published 2020).

Tested on: Frataxin (FXN) mRNA expression
Experiment: Effect of HDAC inhibitors on frataxin (FXN) mRNA expression in iPSC derived neuronal cells (qRT-PCR)
Type: cell-based
Conditions: iPSC derived neuronal cells differentiated 16 days, compound incubated 24 h
Experimental: Effect of HDAC Inhibitors on Frataxin (FXN) mRNA Expression
Method: mRNA quantification of compound-treated iPSC derived neuronal cells Neuronal stem cells were cultured in Neurobasal A medium (Life technologies #10888022) supplemented with N2, B27 (Life technologies #17502-048 and #17504-044), L-glutamine (Life technologies #25030081), supplemented with 20 ng/ml EGF (R&D Systems #236-EG) and 20 ng/ml bFGF (BioPioneer # HRP-0011). Neuronal differentiation was initiated by removing growth factors and culturing cells in Neurobasal A with N2 and B27. Cells were allowed to differentiate for 16 days. HDAC inhibitory compound was then added and incubate for 24 h. RNA isolation was performed using the RNeasy Plus mini kit (QIAgen #74134) using a QIAcube instrument per manufacturer's instructions. qRT-PCR was performed using qScript One-Step SYBR Green qRT-PCR Kit (Quanta Biosciences 170-8893BR) with the following conditions: 20 minutes at 50° C., 5 minutes at 95° C., and then 40 cycles of 20 seconds at 95° C., 20 seconds at 55° C., 30 seconds at 72° C. The primer sequences to detect expression of FXN were: 5′-[…]-3′ and 5′-[…]-3′.
Data for additional compounds for iPSC fold inductions and cLogP are shown in Table 4 The ranges reported for cLogP refer to the following. A<1, 1<B<2, 2<C<3, 3<D<5, E>5. NA refers to “not available.”

Nc1ccccc1NC(=O)c1ccc(CC2CCN(CC3CC3)C2)cc1 (stereo not shown) [Compound 555, N-(2-aminophenyl)-4-((1-(cyclopropylmethyl)pyrrolidin-3-yl)methyl)benzamide]
Fold Induction: 1.11
